Assay results: patent publication US4668677A, “4-phenylphthalazine derivatives, their preparation and their use as pharmaceuticals” (Mitsubishi Chemical Industries Limited, priority 1984, dated 1987)

Legend:
in vivo = conditions: rat, po, rats
mice = test: Anti-thrombotic activity: arachidonic acid-induced mortality in mice; type: in vivo, mouse (male ICR-JCL strain); conditions: for Survival time of dead mice: arachidonic acid 100 mg/Kg i.v.; for Mortality: arachidonic acid 100 mg/Kg i.v. after 1 hour
Method in brief: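 Male ICR-JCL mice (about 25 g) dosed orally with compound suspended in 1% tragacanth (20 ml/Kg), then 1 h later challenged i.v. with arachidonic acid 100 mg/Kg in 0.1M sodium carbonate. Readouts: time from challenge to death and mortality.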

rabbits = test: Anti-thrombotic activity: arachidonic acid-induced mortality in rabbits; type: in vivo, rabbit (male New Zealand White)
Procedure: Male ICR-JCL strain mice with an average body weight of about 25 g and male New Zealand White rabbits with an average body weight of about 3 Kg were used.
Where rabbits were used as experimental animals, a suspension of the test compound in a 1% tragacanth aqueous solution was orally administered to animals at 5 ml/Kg. Two hours after the administration, an arachidonic acid solution dissolved in a 0.1M potassium carbonate solution was injected into pinna vein at 1.4 mg/Kg.
Evaluation of activity was effected with mortality at the time when arachidonic acid given. If survived at the first administration of arachidonic acid, arachidonic acid was administered after 6 hours, 24 hours, 48 hours and 72 hours from the administration of the test compound, respectively, and mortality was determined in respective cases.

[1] = system: PGI2-like substance in vessel walls; test: Influence on production of PGI2-like substance in vessel walls (ADP aggregation with carotid artery ring); type: in vivo, rat (male Wistar-ST strain); conditions: 1 hour, 10 μM ADP
Procedure: Male Wistar-ST strain rats with an average weight of about 250 g were used as experimental animals. After fasted for 18 hours, 6.3 ml of blood sample were obtained from corotid artery and immediately thereafter 0.7 ml of an anticoagulant (3.8% sodium citrate) was added and the sample was centrifuged at 200×g over 15 minutes to take platelet-rich plasma (PRP). The same procedures as above were carried out, using 5 to 6 rats, whereby 5-6 ml as normal PRP were stored and employed.
Reference aggregation values were determined by pouring 1 ml each of stored PRP into plastic test tubes, incubating them at 22° C. for 10 minutes and then determining aggregation rate. As an aggregation inducing agent, one employed 10 μM ADP (available from Sigma Co., Inc.)
A suspension of the compound of this invention or aspirin in a 1% aqueous solution of tragacanth was orally given to animals. After 1 hour, 5 mg of carotid artery were cut out in a ring shape and placed into a plastic test tube together with 1 ml of stored PRP. After incubated at 22° C. for 10 minutes, aggregation rate was determined.
Also, non-medicated groups were similarly treated and aggregation rate was determined.
Determination of blood platelet aggregation rate was made by means of an aggregometer.

carotid artery = test: Action on blood flow volume in carotid artery; type: in vivo, rabbit (male New Zealand White)
Procedure: (§1) Male New Zealand White rabbits (body weight of 2.8 Kg to 3.5 Kg) were used and anesthetized with pentobarbital sodium. Blood flow volumes in the carotid artery and femoral artery were measured and recorded via a non-blood observing type of a probe for measuring blood flow volume. Also, blood pressure in femoral artery was simultaneously measured and recorded with measurement of blood flow.
(§2) The compound of this invention was dissolved in an aqueous solution containing 1% tartaric acid and 1% dimethylacetamide, while papaverine hydrochloride dissolved in 0.9% physiological saline. These test compounds were intravenously given through a residual polyethylene tube within femoral vein.

femoral artery [2] = test: Action on blood flow volume in femoral artery; type: in vivo, rabbit (male New Zealand White)
Procedure: as §1, §2

femoral artery [3] = test: Action on blood pressure in femoral artery; type: in vivo, rabbit (male New Zealand White)
Procedure: as §1, §2

CC(C)(C)CNc1nnc(-c2ccccc2)c2ccccc12 [Compound 1, 1-neopentylamino-4-phenylphthalazine]
LD50 (in vivo): > 8000 mg/kg | Survival time of dead mice (mice; 30 mg/Kg oral): 101 ± 11 s | Mortality (mice; 30 mg/Kg oral): 75% | Survival time of dead mice (mice; 100 mg/Kg oral): 108 ± 11 s | Mortality (mice; 100 mg/Kg oral): 75% | Mortality (mice; 300 mg/Kg oral): 0% | Mortality (number of rabbits) (rabbits; 10 mg/Kg oral, 2 hrs. after administration, of 4 rabbits): 1 | Mortality (number of rabbits) (rabbits; 10 mg/Kg oral, 6 hrs. after administration, of 4 rabbits): 2 | Mortality (number of rabbits) (rabbits; 10 mg/Kg oral, 24 hrs. after administration, of 4 rabbits): 1 | Mortality (number of rabbits) (rabbits; 30 mg/Kg oral, 24 hrs. after administration, of 8 (Compound 1) or 4 rabbits): 3 | Mortality (number of rabbits) (rabbits; 30 mg/Kg oral, 48 hrs. after administration, of 8 (Compound 1) or 4 rabbits): 1 | Mortality (number of rabbits) (rabbits; 30 mg/Kg oral, 72 hrs. after administration, of 8 rabbits): 4 | Aggregation rate with ADP when carotid artery ring added ([1]; 3 mg/Kg oral): 2.7% | Aggregation rate with ADP when carotid artery ring added ([1]; 10 mg/Kg oral): 17.7% | Aggregation rate with ADP when carotid artery ring added ([1]; 30 mg/Kg oral): 10.0% | Blood flow volume in carotid artery, A: Before administration (carotid artery; 0.01 mg/Kg i.v.): 15.5 mL/min | Blood flow volume in carotid artery, B: After administration (carotid artery; 0.01 mg/Kg i.v.): 21.9 mL/min | Blood flow volume in carotid artery, C: Increase degree (carotid artery; 0.01 mg/Kg i.v.): 6.3 mL/min | Blood flow volume in carotid artery, D: Increase rate (carotid artery; 0.01 mg/Kg i.v.): 40.8% | Blood flow volume in carotid artery, A: Before administration (carotid artery; 0.05 mg/Kg i.v.): 14.5 mL/min | Blood flow volume in carotid artery, B: After administration (carotid artery; 0.05 mg/Kg i.v.): 22.7 mL/min | Blood flow volume in carotid artery, C: Increase degree (carotid artery; 0.05 mg/Kg i.v.): 8.1 mL/min | Blood flow volume in carotid artery, D: Increase rate (carotid artery; 0.05 mg/Kg i.v.): 53.7% | Blood flow volume in carotid artery, A: Before administration (carotid artery; 0.1 mg/Kg i.v.): 15.4 mL/min | Blood flow volume in carotid artery, B: After administration (carotid artery; 0.1 mg/Kg i.v.): 26.9 mL/min | Blood flow volume in carotid artery, C: Increase degree (carotid artery; 0.1 mg/Kg i.v.): 11.5 mL/min | Blood flow volume in carotid artery, D: Increase rate (carotid artery; 0.1 mg/Kg i.v.): 74.2% | Blood flow volume in carotid artery, A: Before administration (carotid artery; 0.5 mg/Kg i.v.): 17.3 mL/min | Blood flow volume in carotid artery, B: After administration (carotid artery; 0.5 mg/Kg i.v.): 35.1 mL/min | Blood flow volume in carotid artery, C: Increase degree (carotid artery; 0.5 mg/Kg i.v.): 17.8 mL/min | Blood flow volume in carotid artery, D: Increase rate (carotid artery; 0.5 mg/Kg i.v.): 109.7% | Blood flow volume in femoral artery, A: Before administration (femoral artery [2]; 0.01 mg/Kg i.v.): 19.0 mL/min | Blood flow volume in femoral artery, B: After administration (femoral artery [2]; 0.01 mg/Kg i.v.): 22.1 mL/min | Blood flow volume in femoral artery, C: Increase degree (femoral artery [2]; 0.01 mg/kg i.v.): 3.1 mL/min | Blood flow volume in femoral artery, D: Increase rate (femoral artery [2]; 0.01 mg/kg i.v.): 9.9% | Blood flow volume in femoral artery, A: Before administration (femoral artery [2]; 0.05 mg/Kg i.v.): 18.5 mL/min | Blood flow volume in femoral artery, B: After administration (femoral artery [2]; 0.05 mg/Kg i.v.): 24.3 mL/min | Blood flow volume in femoral artery, C: Increase degree (femoral artery [2]; 0.05 mg/kg i.v.): 5.8 mL/min | Blood flow volume in femoral artery, D: Increase rate (femoral artery [2]; 0.05 mg/kg i.v.): 28.2% | Blood flow volume in femoral artery, A: Before administration (femoral artery [2]; 0.1 mg/Kg i.v.): 18.5 mL/min | Blood flow volume in femoral artery, B: After administration (femoral artery [2]; 0.1 mg/Kg i.v.): 27.8 mL/min | Blood flow volume in femoral artery, C: Increase degree (femoral artery [2]; 0.1 mg/kg i.v.): 9.3 mL/min | Blood flow volume in femoral artery, D: Increase rate (femoral artery [2]; 0.1 mg/kg i.v.): 65.2% | Blood flow volume in femoral artery, A: Before administration (femoral artery [2]; 0.5 mg/Kg i.v.): 19.5 mL/min | Blood flow volume in femoral artery, B: After administration (femoral artery [2]; 0.5 mg/Kg i.v.): 28.2 mL/min | Blood flow volume in femoral artery, C: Increase degree (femoral artery [2]; 0.5 mg/kg i.v.): 8.7 mL/min | Blood flow volume in femoral artery, D: Increase rate (femoral artery [2]; 0.5 mg/kg i.v.): 55.3% | Blood pressure in femoral artery, A: Before administration (femoral artery [3]; 0.01 mg/kg i.v.): 96.0 mmHg | Blood pressure in femoral artery, B: After administration (femoral artery [3]; 0.01 mg/kg i.v.): 92.3 mmHg | Blood pressure in femoral artery, E: Lowering degree (femoral artery [3]; 0.01 mg/kg i.v.): 3.7 mmHg | Blood pressure in femoral artery, F: Lowering rate (femoral artery [3]; 0.01 mg/kg i.v.): 3.8% | Blood pressure in femoral artery, A: Before administration (femoral artery [3]; 0.05 mg/kg i.v.): 91.7 mmHg | Blood pressure in femoral artery, B: After administration (femoral artery [3]; 0.05 mg/kg i.v.): 81.7 mmHg | Blood pressure in femoral artery, E: Lowering degree (femoral artery [3]; 0.05 mg/kg i.v.): 10.0 mmHg | Blood pressure in femoral artery, F: Lowering rate (femoral artery [3]; 0.05 mg/kg i.v.): 10.9% | Blood pressure in femoral artery, A: Before administration (femoral artery [3]; 0.1 mg/kg i.v.): 90.0 mmHg | Blood pressure in femoral artery, B: After administration (femoral artery [3]; 0.1 mg/kg i.v.): 81.7 mmHg | Blood pressure in femoral artery, E: Lowering degree (femoral artery [3]; 0.1 mg/kg i.v.): 8.3 mmHg | Blood pressure in femoral artery, F: Lowering rate (femoral artery [3]; 0.1 mg/kg i.v.): 8.8% | Blood pressure in femoral artery, A: Before administration (femoral artery [3]; 0.5 mg/kg i.v.): 86.7 mmHg | Blood pressure in femoral artery, B: After administration (femoral artery [3]; 0.5 mg/kg i.v.): 63.2 mmHg | Blood pressure in femoral artery, E: Lowering degree (femoral artery [3]; 0.5 mg/kg i.v.): 23.5 mmHg | Blood pressure in femoral artery, F: Lowering rate (femoral artery [3]; 0.5 mg/kg i.v.): 30.1%
